The values that follow come from article PMC4172917, “Synergy of crude enzyme cocktail from cold-adapted Cladosporium cladosporioides Ch2-2 with commercial xylanase achieving high sugars yield at low cost” (Biotechnology for Biofuels, 2014).

One assay relates to laccase. Conditions: optimal conditions (15°C, pH 3.5), but b56 states 28°C and 10 to 40 mmol/L substrate; sodium acetate buffer.
In assay [1] the test system is T1, MIP (manganese-independent peroxidase).
T1 construct: native enzyme purified from culture supernatant (ammonium sulfate, DEAE-Sephadex A 50, CM-Sephadex C 50, Sephadex G-75); about 47 kDa by SDS-PAGE
In words: initial rates, oxidation of DMP at […] nm. It counts as biochemical, Cladosporium cladosporioides. Conditions: without H2O2 and Mn2+; optimal conditions (20°C, pH 2.5), but b56 states 28°C and 10 to 40 mmol/L substrate; malonate buffer; compound identity doubtful: DMP is spelt out as dimethyl phthalate.

For the compound `CCn1c(=NN=c2sc3cc(S(=O)(=O)O)ccc3n2CC)sc2cc(S(=O)(=O)O)ccc21` [ABTS], the Km in the assay with laccase amounted to 2.8 µM.
For the compound `COc1cccc(OC)c1O` [DMP], the Km in assay [1] amounted to 6.9 µM.
